Data on three compounds can be found in patent US20080045592A1, “Method of inhibiting growth and proliferation of listeria monocytogenes using levulinate” (Utah State University, priority 2006, published 2008).

For assay [1], the system named is 5 strain cocktail of L. monocytogenes. Conditions: for inhibiting growth of L. monocytogenes, compared with sodium lactate alone or sodium lactate combined with sodium diacetate: 2° C., comparators at 2%; for growth of L. monocytogenes: entire 12 weeks of storage at 2° C.
Assay [2] shares this test system. The conditions noted are these: for inhibition of growth of L. monocytogenes, compared with sodium lactate alone or sodium lactate combined with sodium diacetate: 2° C., comparators at 2%; for growth of L. monocytogenes: entire 12 weeks of storage at 2° C.
In assay [3] the test system is cocktail of 5 pathogenic strains of L. monocytogenes. Conditions: bologna slices surface contacted with 1 to 3% solutions, stored at 4° C. for 16 weeks. An excerpt:
This experiment tests the residual anti-Listeria activity imparted by topical application of levulinate to ready-to-eat meat product. In this experiment, levulinic acid is topically applied to a ready-to-eat meat product, and residual anti-Listeria activity followed in a post-treatment challenge. Briefly, bologna slices are surface contacted (spray, wash, or dips) with solutions of 1 to 3% levulinic […] acid. The slices are inoculated with a cocktail of 5 pathogenic strains of L. monocytogenes. Samples are vacuum packaged and stored at 4° C. for 16 weeks. Pathogen counts are determined at 0, 2, 4, 8, 12 and 16 weeks.

Assay [4] deals with pathogenic bacteria (including, but not limited to Listeria monocytogenes). Conditions: 2% applied at 54° C. to carcass tissues, stored 4 to 8° C. for 16 weeks. Here is the method: This experiment tests the extent of residual anti-pathogenic activity of levulinic acid (2%) topically applied to carcasses by dipping, spraying, or washing as compared to lactic acid (2%) or acetic acid (2%). Briefly, levulinic acid, lactic acid and acetic acid are independently applied at 54° C. to samples of carcass tissues from beef, pork, lamb, and poultry (or any other species) by topical application. Samples are inoculated with pathogenic bacteria (including, but not limited to Listeria monocytogenes), vacuum packaged, and stored (4 to 8° C.) for 16 weeks. Pathogen counts are determined at 0, 2, 4, 8, 12, and 16 weeks.

The test system of assay [5] is pathogenic bacteria (including, but not limited to, Listeria monocytogenes). The conditions noted are these: 0.5, 1.0, 2.0% applied at temperatures greater than 54° C. (68, 77° C.); comparators 2% at 54° C. As for the experimental part: Samples are vacuum packaged and stored at 4° C. for 12 hours, and pathogen counts are determined.
The test system of assay [6] is pathogenic bacteria (including, but not limited to, Listeria monocytogene). The conditions noted are these: addition or application to any food, stored at 4 to 8° C. for up to 16 weeks. As for the experimental part:
Pathogen counts are determined at 0, 2, 4, 8, 12, and 16 weeks.

The subject of assay [7] is pathogenic bacteria including, but not limited to, Listeria monocytogenes. Conditions: 2% applied at 54° C. to carcass tissue, stored at 4° C. for 12 hours. Here is the method: This experiment tests the extent of decontamination achieved by topical application of levulinic acid to carcass meats as compared to lactic and acetic acids. Briefly, carcass tissues samples from beef, pork, lamb, and poultry (or any other species) are inoculated with pathogenic bacteria including, but not limited to, Listeria monocytogenes. Levulinic acid (2%), lactic acid (2%), and acetic acid (2%) are independently applied at 54° C. to individual meat samples by washing, dipping, or spraying. Samples are vacuum packaged and stored at 4° C. for 12 hours, and pathogen counts are determined.

Read-outs that look alike come from different tables or passages of the source.

Turning to `CC(=O)CCC(=O)O` [levulinate], the “peak levels of growth of L. monocytogenes” value in assay [1] (1% in turkey product, after 12 weeks of storage at 2° C.) is “greatly inhibited”. Further, the “growth of L. monocytogenes compared to the control” value in assay [1] (1% in turkey product, vacuum packaged, stored at 2° C., two trials averaged) was “delayed growth”.

As for `CC(=O)CCC(=O)[O-].[Na+]` [sodium levulinate], the “inhibition of growth of L. monocytogenes, compared with sodium lactate alone or sodium lactate combined with sodium diacetate” value in assay [2] (1% in bologna), in assay [2] (2% in bologna) and in assay [2] (3% in bologna) was “as inhibitory” each time. For the same compound, the “growth of L. monocytogenes” value in assay [2] (1% in bologna), in assay [2] (2% in bologna), in assay [2] (3% in bologna), in assay [1] (2% in turkey product) and in assay [1] (3% in turkey product) was “completely inhibited growth” each time. The “inhibiting growth of L. monocytogenes, compared with sodium lactate alone or sodium lactate combined with sodium diacetate” value in assay [1] (2% in turkey product) and in assay [1] (3% in turkey product) was “more effective” throughout.

`CC(=O)CCC(=O)O` [levulinic acid, 4-oxopentanoic acid]: in assay [3], the “proliferation of Listeria bacteria in treated meat samples” value was “significant decrease”. The “residual anti-pathogenic activity as compared to lactic acid and acetic acid” value in assay [4] was “equal or greater residual anti-pathogenic activity”. Moreover, in assay [5], the “initial surface decontamination activity against pathogenic bacteria as compared to fixed concentrations of lactic acid or acetic acid at a fixed temperature” value is reported as “significant initial surface decontamination activity”. Moreover, in assay [6], the “initial decontamination and residual activity against pathogenic bacteria” value is “significant initial decontamination and residual activity”. Moreover, the “decontamination of pathogens as compared to lactic acid and acetic acid” value in assay [7] is given as “equal or greater decontamination”.
